This note sets out measurements from patent publication US6660837B1, “Modified protein derived from protein kinase N” (Kirin Beer Kabushiki Kaisha, priority 1995, dated 2003).

For assay [1], the system named is head-rod domain of NF subunit (NFL, NFM, NFH). Nature of the assay: Yeast two-hybrid, PKN N-terminal region with NF head-rod domains. The conditions noted are these: lacZ expression. The assay is classed as binding. The procedure: Specificity of the interaction between PKN and various NFs was investigated by measuring the ability of the two-hybrid constructs, pBTM116(Vojtek, A. B. et al., Cell, 74, 205-214 (1993)) (instead of pGBT9)-PKN and pVP16 (Vojtek, A. B. et al., Cell, 74, 205-214 (1993)) (instead of pGAD10)-NF or in reverse, to support lacZ expression in L40 cells.
Yeast expression vectors were prepared as follows. Yeast expression vector pVP/NFL#21 for the VP16 transcription activation domain-head-rod domain of human NFL was made by subcloning a EcoRI insert (amino acid sequence 1-349) of a library plasmid #21 originally isolated from two-hybrid screening into pVP16 vector (Vojtek, A. B. et al., Cell, 74, 205-214 (1993)). Yeast expression vectors for the VP16 transcription activation domain—tail domain of NFL and NFH or the VP16 transcription activation domain—head-rod domain or tail domain of NFM were constructed by subcloning BamHI/NotI insert of pGST/NFLt, pGST/NFHt, pGST/NFMhr, and pGST/NFMt (described in Example 8) into pVP16 in frame, respectively (designated respectively as pVP/NFLt, pVP/NFHt, pVP/NFMhr, and pVP/NFMt). […]

The target in assay [2] is T1, carboxyl-terminal catalytic region of PKN (Homo sapiens, UniProt Q16512).
T1 construct: made in house; host or cells: in vitro translation in reticulocyte lysate (Promega)
T1 sequence (Q16512 614-942): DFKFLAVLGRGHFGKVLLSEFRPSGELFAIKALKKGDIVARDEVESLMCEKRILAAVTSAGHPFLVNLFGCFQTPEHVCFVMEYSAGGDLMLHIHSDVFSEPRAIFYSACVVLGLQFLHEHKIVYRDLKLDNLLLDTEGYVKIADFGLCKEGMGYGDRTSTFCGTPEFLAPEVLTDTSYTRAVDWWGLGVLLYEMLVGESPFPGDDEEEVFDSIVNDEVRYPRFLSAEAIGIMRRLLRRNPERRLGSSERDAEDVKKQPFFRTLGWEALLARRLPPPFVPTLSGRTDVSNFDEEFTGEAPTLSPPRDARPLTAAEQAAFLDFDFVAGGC
Nature of the assay: In vitro binding, regulatory with catalytic region of PKN (GST pull-down). An excerpt:
Truncated human PKN was made as follows; expression vector pPKN-N for amino-terminal region of PKN was made by digesting phPKN-H4 (human PKN cDNA inserted in pBluescript II SK) (Mukai, H. & Ono, Y., Biochem. Biophys. Res. Commun. 199, 897-904 (1994)) with BstEII, and filling-in both the ends with T4 DNA polymerase, and self-ligation. The resulting plasmid codes for amino acid residues of PKN from 1 to 474 in SEQ ID NO: 1. cDNA insert from this plasmid was cloned into pRc/CMV (Invitrogen Corp.). Fragment coding for the amino acids 614-942, in SEQ ID NO: 1, containing the catalytic domain of human PKN was made by PCR amplification. Expression vector pPKN-C for the carboxyl-terminal region of PKN was made by subcloning this fragment into pRc/CMV. These plasmids were linealized by cutting with XbaI, and cRNA was transcribed using T7 RNA polymerase. cRNA was translated in a […] reticulocyte lysate (Promega) in the presence of [^35S] methionine. […]
In vitro translated PKN-N or PKN-C (2.5 μl) was mixed with 5 μg of each GST-PKN-N or GST-PKN-C fusion protein or 25 μg of GST alone in 400 μl of GST binding buffer [20 mM Tris/HCl (pH 7.5), 0.5 mM DTT, 150 mM NaCl, 0.05% Triton X-100, 1 mM EDTA, 1 μg/ml leupeptin] and incubated for 1 hr at 4° C. […] Quantification of the binding reactions was carried out by a BAS 1000 bio-imaging analyzer (FUJI).

On to “N-terminal region of PKN: N-terminal regulatory region of human PKN: 1-540 (PKNN1) in two-hybrid and GST fusions, 1-474 when in vitro translated”, for which the “binding to head-rod domain of each NF subunit in two-hybrid system” value in assay [1] is “bound”. In addition, the “binding to carboxyl-terminal catalytic region of PKN in vitro” value in assay [2] is reported as “directly binds”.
